Test results as given in patent US11572369B2, “Bicyclic pyridine compositions and methods of using the same for cancer therapy” (UNIVERSITY OF SOUTH CAROLINA, priority 2019, dated 2023).

Experiments:
Assay in all cases: KINOMEscan
Type in all cases: binding
Settings in all cases: 2000 nM
TIE1 = target: T1, TIE1 (Homo sapiens, UniProt P35590)
T1 construct: DNA label (qPCR read-out); purchased KINOMEscan (DiscoveRx) ScanMAX panel

DLK = target: T2, DLK (Homo sapiens, UniProt Q12852)
T2 construct: DNA label (qPCR read-out); purchased KINOMEscan (DiscoveRx) panel

FLT4 = target: T3, FLT4 (Homo sapiens, UniProt P35916)
T3 construct: purchased KINOMEscan (DiscoveRx)

NEK4 = target: T4, NEK4 (Homo sapiens, UniProt P51957)
T4 construct: DNA label (qPCR read-out); purchased KINOMEscan (ScanMAX panel service)

[1] = target: ABL1(F317L)-nonphosphorylated (Homo sapiens, UniProt P00519, F317L)
PAK7 = target: T5, PAK7 (Homo sapiens, UniProt Q9P286)
T5 construct: purchased DiscoverX (KINOMEscan service)

CAMK1D = target: T6, CAMK1D (Homo sapiens, UniProt Q8IU85)
T6 construct: DNA label (qPCR read-out); purchased KINOMEscan (ScanMAX panel service)

DYRK1B = target: T7, DYRK1B (Homo sapiens, UniProt Q9Y463)
T7 construct: DNA label (qPCR read-out); purchased KINOMEscan (DiscoveRx) panel

PIK3C2G = target: T8, PIK3C2G (Homo sapiens, UniProt O75747)
T8 construct: DNA label (for qPCR read-out); purchased DiscoveRx (KINOMEscan scanMAX service)

[2] = target: ABL1(Q252H)-nonphosphorylated (Homo sapiens, UniProt P00519, Q252H)
TAOK1 = target: T9, TAOK1 (Homo sapiens, UniProt Q7L7X3)
T9 construct: DNA label (for qPCR read-out); purchased DiscoveRx (KINOMEscan scanMAX panel, contract assay)

PKAC-beta = target: T10, PKAC-beta (Homo sapiens, UniProt P22694)
T10 construct: DNA label (qPCR read-out); purchased KINOMEscan (DiscoveRx) panel

MTOR = target: T11, MTOR (Homo sapiens, UniProt P42345)
T11 construct: DNA label (for qPCR read-out); purchased KINOMEscan scanMAX panel (DiscoveRx)

NDR1 = target: T12, NDR1 (Homo sapiens, UniProt Q15208)
T12 construct: DNA label (for qPCR read-out); purchased KINOMEscan scanMAX panel (DiscoveRx)

PIK3CA(Q546K) = target: T13, PIK3CA(Q546K) (Homo sapiens, UniProt P42336, Q546K)
T13 construct: DNA label; purchased DiscoveRx (KINOMEscan scanMAX panel)

TLK2 = target: T14, TLK2 (Homo sapiens, UniProt Q86UE8)
T14 construct: DNA label (qPCR read-out); purchased KINOMEscan (DiscoveRx) ScanMAX panel

NEK1 = target: T15, NEK1 (Homo sapiens, UniProt Q96PY6)
T15 construct: DNA label (for qPCR read-out); purchased KINOMEscan scanMAX panel (DiscoveRx)

CDK9 = target: T16, CDK9 (Homo sapiens, UniProt P50750)
T16 construct: purchased DiscoverX (KINOMEscan service)
T16 sequence (P50750 whole entry): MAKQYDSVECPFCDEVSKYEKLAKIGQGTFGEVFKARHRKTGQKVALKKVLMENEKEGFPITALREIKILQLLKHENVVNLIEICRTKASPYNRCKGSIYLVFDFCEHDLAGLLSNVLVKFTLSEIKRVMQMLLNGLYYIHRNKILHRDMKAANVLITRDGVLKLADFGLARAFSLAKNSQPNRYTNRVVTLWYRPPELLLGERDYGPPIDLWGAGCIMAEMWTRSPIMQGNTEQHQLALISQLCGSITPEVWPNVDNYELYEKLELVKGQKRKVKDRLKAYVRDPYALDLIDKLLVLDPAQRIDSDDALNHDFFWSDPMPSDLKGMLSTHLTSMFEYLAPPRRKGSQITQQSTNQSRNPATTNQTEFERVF

NIM1 = target: T17, NIM1 (Homo sapiens, UniProt Q8IY84)
T17 construct: DNA label (qPCR read-out); purchased KINOMEscan (ScanMAX panel service)

EPHA4 = target: T18, EPHA4 (Homo sapiens, UniProt P54764)
T18 construct: purchased DiscoveRx (KINOMEscan scanMAX panel)

PAK4 = target: T19, PAK4 (Homo sapiens, UniProt O96013)
T19 construct: purchased DiscoverX (KINOMEscan service)
T19 sequence (O96013 whole entry): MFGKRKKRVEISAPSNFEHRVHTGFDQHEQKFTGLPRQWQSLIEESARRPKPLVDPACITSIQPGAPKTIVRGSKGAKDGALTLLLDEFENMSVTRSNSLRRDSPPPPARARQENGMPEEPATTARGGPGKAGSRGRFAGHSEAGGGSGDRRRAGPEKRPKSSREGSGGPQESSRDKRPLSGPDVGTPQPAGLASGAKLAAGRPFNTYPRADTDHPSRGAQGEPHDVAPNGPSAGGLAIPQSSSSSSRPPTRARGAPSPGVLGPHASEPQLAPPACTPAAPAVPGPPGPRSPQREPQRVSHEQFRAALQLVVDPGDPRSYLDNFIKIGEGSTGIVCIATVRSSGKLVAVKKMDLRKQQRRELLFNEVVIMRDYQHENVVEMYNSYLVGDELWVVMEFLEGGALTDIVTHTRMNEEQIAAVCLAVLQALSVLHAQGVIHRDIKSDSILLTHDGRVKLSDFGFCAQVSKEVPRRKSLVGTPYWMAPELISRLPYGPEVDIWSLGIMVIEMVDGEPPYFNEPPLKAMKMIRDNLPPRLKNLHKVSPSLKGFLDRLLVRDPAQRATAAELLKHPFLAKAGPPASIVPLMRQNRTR

INSRR = target: T20, INSRR (Homo sapiens, UniProt P14616)
T20 construct: DNA label (qPCR read-out); purchased KINOMEscan (DiscoveRx) ScanMAX panel

CLK2 = target: T21, CLK2 (Homo sapiens, UniProt P49760)
T21 construct: DNA label (for qPCR read-out); purchased DiscoveRx (KINOMEscan scanMAX service)

CDK7 = target: T22, CDK7 (Homo sapiens, UniProt P50613)
T22 construct: purchased DiscoverX (KINOMEscan service)

SRPK1 = target: T23, SRPK1 (Homo sapiens, UniProt Q96SB4)
T23 construct: purchased KINOMEscan (DiscoveRx)

CSNK2A2 = target: T24, CSNK2A2 (Homo sapiens, UniProt P19784)
T24 construct: DNA label; purchased DiscoveRx (KINOMEscan scanMAX panel)
T24 sequence (P19784 whole entry): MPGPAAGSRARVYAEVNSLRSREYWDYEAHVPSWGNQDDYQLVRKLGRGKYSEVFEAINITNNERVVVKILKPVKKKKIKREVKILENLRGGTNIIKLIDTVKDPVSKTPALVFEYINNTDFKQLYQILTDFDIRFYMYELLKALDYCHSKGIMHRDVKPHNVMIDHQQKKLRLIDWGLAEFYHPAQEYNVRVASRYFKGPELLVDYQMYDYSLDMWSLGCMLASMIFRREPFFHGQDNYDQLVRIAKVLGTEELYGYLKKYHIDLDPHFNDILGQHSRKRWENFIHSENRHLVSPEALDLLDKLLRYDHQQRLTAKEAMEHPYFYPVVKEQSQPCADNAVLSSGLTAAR

GRK1 = target: T25, GRK1 (Homo sapiens, UniProt Q15835)
T25 construct: purchased KINOMEscan (DiscoveRx)

KIT-autoinhibited = target: T26, KIT-autoinhibited (Homo sapiens, UniProt P10721)
T26 construct: purchased KINOMEscan (DiscoveRx) panel service

TRKC = target: T27, TRKC (Homo sapiens, UniProt Q16288)
T27 construct: DNA label (qPCR read-out); purchased KINOMEscan (DiscoveRx) ScanMAX panel
T27 sequence (Q16288 32-839): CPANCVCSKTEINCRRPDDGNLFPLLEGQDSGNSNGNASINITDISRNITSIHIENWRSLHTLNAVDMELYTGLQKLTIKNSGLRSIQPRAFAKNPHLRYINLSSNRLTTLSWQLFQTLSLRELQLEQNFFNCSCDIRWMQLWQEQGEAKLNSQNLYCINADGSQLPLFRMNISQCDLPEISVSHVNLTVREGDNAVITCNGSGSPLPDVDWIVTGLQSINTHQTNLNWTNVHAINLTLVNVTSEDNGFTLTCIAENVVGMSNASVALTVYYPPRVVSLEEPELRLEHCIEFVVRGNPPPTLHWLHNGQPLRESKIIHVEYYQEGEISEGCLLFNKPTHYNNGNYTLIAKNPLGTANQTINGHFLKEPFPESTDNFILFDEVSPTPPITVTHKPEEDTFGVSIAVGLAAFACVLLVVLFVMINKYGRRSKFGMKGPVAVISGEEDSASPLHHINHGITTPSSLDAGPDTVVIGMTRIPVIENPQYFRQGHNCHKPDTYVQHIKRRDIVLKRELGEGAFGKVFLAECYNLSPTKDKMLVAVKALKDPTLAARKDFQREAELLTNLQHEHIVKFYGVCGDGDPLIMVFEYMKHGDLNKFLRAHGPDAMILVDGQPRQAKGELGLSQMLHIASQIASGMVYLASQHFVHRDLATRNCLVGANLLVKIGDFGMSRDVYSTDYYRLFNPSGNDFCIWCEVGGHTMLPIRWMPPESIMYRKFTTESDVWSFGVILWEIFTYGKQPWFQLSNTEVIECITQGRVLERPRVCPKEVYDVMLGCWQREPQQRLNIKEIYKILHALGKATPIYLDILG

LATS1 = target: T28, LATS1 (Homo sapiens, UniProt O95835)
T28 construct: purchased KINOMEscan (DiscoveRx) panel service
T28 sequence (O95835 whole entry): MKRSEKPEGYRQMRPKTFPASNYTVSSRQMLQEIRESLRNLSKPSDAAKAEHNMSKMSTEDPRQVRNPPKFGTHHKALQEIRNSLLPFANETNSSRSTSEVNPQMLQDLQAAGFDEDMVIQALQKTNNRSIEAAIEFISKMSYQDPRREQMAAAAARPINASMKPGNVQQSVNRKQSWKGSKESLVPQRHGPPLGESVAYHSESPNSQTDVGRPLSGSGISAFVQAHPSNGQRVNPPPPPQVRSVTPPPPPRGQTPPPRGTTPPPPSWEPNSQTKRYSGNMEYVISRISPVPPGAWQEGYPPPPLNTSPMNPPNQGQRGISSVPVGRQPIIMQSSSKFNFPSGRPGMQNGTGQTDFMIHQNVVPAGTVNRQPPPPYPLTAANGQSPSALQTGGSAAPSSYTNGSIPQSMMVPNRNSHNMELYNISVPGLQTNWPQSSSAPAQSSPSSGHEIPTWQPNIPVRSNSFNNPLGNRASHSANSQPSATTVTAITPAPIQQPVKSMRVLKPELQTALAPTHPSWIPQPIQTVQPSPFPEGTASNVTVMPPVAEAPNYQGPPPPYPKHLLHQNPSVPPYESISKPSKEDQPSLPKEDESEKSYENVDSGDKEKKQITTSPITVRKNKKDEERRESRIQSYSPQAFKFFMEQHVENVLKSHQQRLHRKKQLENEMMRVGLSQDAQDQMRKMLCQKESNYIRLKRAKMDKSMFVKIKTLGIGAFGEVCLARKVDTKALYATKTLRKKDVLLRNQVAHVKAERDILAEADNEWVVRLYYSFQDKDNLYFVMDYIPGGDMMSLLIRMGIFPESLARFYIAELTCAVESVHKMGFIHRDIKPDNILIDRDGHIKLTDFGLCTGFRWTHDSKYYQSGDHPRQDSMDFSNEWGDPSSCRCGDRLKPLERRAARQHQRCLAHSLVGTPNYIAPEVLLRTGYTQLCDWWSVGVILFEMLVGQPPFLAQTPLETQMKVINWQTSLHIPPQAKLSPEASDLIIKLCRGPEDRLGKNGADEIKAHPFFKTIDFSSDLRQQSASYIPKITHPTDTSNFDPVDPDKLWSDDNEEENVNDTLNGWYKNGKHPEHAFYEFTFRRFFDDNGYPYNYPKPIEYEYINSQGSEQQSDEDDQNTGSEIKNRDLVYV

CHEK2 = target: T29, CHEK2 (Homo sapiens, UniProt O96017)
T29 construct: DNA label (for qPCR read-out); purchased DiscoveRx (KINOMEscan scanMAX service)

NEK11 = target: T30, NEK11 (Homo sapiens, UniProt Q8NG66)
T30 construct: DNA label (qPCR read-out); purchased KINOMEscan (ScanMAX panel service)

SLK = target: T31, SLK (Homo sapiens, UniProt Q9H2G2)
T31 construct: purchased KINOMEscan (DiscoveRx)

CSNK1A1L = target: T32, CSNK1A1L (Homo sapiens, UniProt Q8N752)
T32 construct: DNA label; purchased DiscoveRx (KINOMEscan scanMAX panel)

ICK = target: T33, ICK (Homo sapiens, UniProt Q9UPZ9)
T33 construct: DNA label (qPCR read-out); purchased KINOMEscan (DiscoveRx) ScanMAX panel
T33 sequence (Q9UPZ9 whole entry): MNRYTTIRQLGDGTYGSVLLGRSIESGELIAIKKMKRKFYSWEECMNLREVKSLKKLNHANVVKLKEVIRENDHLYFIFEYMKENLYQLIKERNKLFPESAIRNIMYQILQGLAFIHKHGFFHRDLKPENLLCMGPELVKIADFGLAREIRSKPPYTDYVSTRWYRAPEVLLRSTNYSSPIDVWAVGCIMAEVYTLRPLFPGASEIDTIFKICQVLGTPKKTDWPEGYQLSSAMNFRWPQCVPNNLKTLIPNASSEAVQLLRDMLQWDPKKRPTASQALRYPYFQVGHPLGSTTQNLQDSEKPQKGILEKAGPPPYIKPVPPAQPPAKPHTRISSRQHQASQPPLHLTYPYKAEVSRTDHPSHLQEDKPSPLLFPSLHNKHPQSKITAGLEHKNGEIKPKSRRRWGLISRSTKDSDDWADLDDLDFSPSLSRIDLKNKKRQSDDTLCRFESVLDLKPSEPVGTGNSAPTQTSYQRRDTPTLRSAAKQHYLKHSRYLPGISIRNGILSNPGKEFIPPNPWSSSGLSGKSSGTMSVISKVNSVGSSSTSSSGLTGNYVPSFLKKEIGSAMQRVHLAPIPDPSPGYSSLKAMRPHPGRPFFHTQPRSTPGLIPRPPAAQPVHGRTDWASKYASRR

DRAK2 = target: T34, DRAK2 (Homo sapiens, UniProt O94768)
T34 construct: DNA label (qPCR read-out); purchased KINOMEscan (DiscoveRx) panel

CDK4 = target: T35, CDK4 (Homo sapiens, UniProt P11802)
T35 construct: purchased DiscoverX (KINOMEscan service)

PRKD2 = target: T36, PRKD2 (Homo sapiens, UniProt Q9BZL6)
T36 construct: purchased DiscoveRx (KINOMEscan scanMAX panel)
T36 sequence (Q9BZL6 whole entry): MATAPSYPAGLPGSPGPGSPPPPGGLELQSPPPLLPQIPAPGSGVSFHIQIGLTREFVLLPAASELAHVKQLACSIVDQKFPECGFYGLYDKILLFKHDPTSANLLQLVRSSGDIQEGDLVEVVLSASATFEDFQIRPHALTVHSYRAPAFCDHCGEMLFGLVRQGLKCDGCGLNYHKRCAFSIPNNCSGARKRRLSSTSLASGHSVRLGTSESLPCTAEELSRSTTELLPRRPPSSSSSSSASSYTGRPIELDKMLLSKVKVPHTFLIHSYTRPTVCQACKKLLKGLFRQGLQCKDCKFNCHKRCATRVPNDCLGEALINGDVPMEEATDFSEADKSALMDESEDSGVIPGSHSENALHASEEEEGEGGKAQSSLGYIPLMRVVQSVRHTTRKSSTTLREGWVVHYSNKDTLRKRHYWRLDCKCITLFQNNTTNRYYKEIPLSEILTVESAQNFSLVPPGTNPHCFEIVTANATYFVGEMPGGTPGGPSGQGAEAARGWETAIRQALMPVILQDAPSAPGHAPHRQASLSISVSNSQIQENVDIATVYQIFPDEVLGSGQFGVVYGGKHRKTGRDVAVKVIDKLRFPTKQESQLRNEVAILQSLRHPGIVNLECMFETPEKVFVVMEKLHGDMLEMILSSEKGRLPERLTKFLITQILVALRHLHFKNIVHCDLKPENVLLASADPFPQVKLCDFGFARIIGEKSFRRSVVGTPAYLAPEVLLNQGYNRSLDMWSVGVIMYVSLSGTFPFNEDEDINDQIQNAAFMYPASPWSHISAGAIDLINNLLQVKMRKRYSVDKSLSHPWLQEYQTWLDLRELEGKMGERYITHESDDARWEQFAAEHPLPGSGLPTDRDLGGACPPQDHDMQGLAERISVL

| SMILES | % Ctrl (TIE1) | % Ctrl (DLK) | % Ctrl (FLT4) | % Ctrl (NEK4) | % Ctrl [1] | % Ctrl (PAK7) | % Ctrl (CAMK1D) | % Ctrl (DYRK1B) | % Ctrl (PIK3C2G) | % Ctrl [2] | % Ctrl (TAOK1) | % Ctrl (PKAC-beta) | % Ctrl (MTOR) | % Ctrl (NDR1) | % Ctrl (PIK3CA(Q546K)) | % Ctrl (TLK2) | % Ctrl (NEK1) | % Ctrl (CDK9) | % Ctrl (NIM1) | % Ctrl (EPHA4) | other results |
| --- | --- | --- | --- | --- | --- | --- | --- | --- | --- | --- | --- | --- | --- | --- | --- | --- | --- | --- | --- | --- | --- |
| CN(C)C(=O)c1ccc(N2CCCN(c3ccnc4sc(C(N)=O)c(N)c34)CC2)cc1 [15u, 3-amino-4-(4-(4-(dimethylcarbamoyl)phenyl)-1,4-diazepan-1-yl)thieno[2,3-b]pyridine-2-carboxamide] | 90 % Ctrl | 93 % Ctrl | 92 % Ctrl | 100 % Ctrl | 99 % Ctrl | 100 % Ctrl | 87 % Ctrl | 69 % Ctrl | 94 % Ctrl | 94 % Ctrl | 100 % Ctrl | 83 % Ctrl | 88 % Ctrl | 100 % Ctrl | 66 % Ctrl | 100 % Ctrl | 80 % Ctrl | 66 % Ctrl | 56 % Ctrl | 100 % Ctrl | % Ctrl (PAK4): 87 % Ctrl; % Ctrl (INSRR): 99 % Ctrl; % Ctrl (CLK2): 75 % Ctrl; % Ctrl (CDK7): 100 % Ctrl; % Ctrl (SRPK1): 100 % Ctrl; % Ctrl (CSNK2A2): 92 % Ctrl; % Ctrl (GRK1): 98 % Ctrl; % Ctrl (KIT-autoinhibited): 90 % Ctrl; % Ctrl (TRKC): 91 % Ctrl; % Ctrl (LATS1): 89 % Ctrl; % Ctrl (CHEK2): 92 % Ctrl; % Ctrl (NEK11): 90 % Ctrl; % Ctrl (SLK): 56 % Ctrl; % Ctrl (CSNK1A1L): 67 % Ctrl; % Ctrl (ICK): 84 % Ctrl; % Ctrl (DRAK2): 100 % Ctrl; % Ctrl (CDK4): 73 % Ctrl; % Ctrl (PRKD2): 56 % Ctrl |
| [2H]C([2H])([2H])N(C(=O)c1ccc(N2CCCN(c3ccnc4sc(C(N)=O)c(N)c34)CC2)cc1)C([2H])([2H])[2H] [15u_D6, 3-amino-4-(4-(4-(bis(methyl-d3)carbamoyl)phenyl)-1,4-diazepan-1-yl)thieno[2,3-b]pyridine-2-carboxamide] | 96 % Ctrl | 89 % Ctrl | 98 % Ctrl | 95 % Ctrl | 100 % Ctrl | 80 % Ctrl | 93 % Ctrl | 100 % Ctrl | 82 % Ctrl | 83 % Ctrl | 73 % Ctrl | 100 % Ctrl | 97 % Ctrl | 80 % Ctrl | 72 % Ctrl | 97 % Ctrl | 96 % Ctrl | 100 % Ctrl | 78 % Ctrl | 100 % Ctrl | % Ctrl (PAK4): 100 % Ctrl; % Ctrl (INSRR): 89 % Ctrl; % Ctrl (CLK2): 83 % Ctrl; % Ctrl (CDK7): 78 % Ctrl; % Ctrl (SRPK1): 97 % Ctrl; % Ctrl (CSNK2A2): 100 % Ctrl; % Ctrl (GRK1): 81 % Ctrl; % Ctrl (KIT-autoinhibited): 90 % Ctrl; % Ctrl (TRKC): 85 % Ctrl; % Ctrl (LATS1): 97 % Ctrl; % Ctrl (CHEK2): 92 % Ctrl; % Ctrl (NEK11): 86 % Ctrl; % Ctrl (SLK): 54 % Ctrl; % Ctrl (CSNK1A1L): 37 % Ctrl; % Ctrl (ICK): 66 % Ctrl; % Ctrl (DRAK2): 87 % Ctrl; % Ctrl (CDK4): 71 % Ctrl; % Ctrl (PRKD2): 90 % Ctrl |
